Counter-ions that a name gives are not always drawn.
Legend:
Human plasma SSAO = biological target: T1, Human plasma SSAO (Homo sapiens, UniProt Q16853); experiment: VAP-1 enzyme (SSAO) activity in human plasma, radiochemical-enzyme assay with 14C-benzylamine; type: biochemical; details: human plasma enzyme suspension; pre-incubation 30 min at room temperature; 14C-benzylamine 2×10^−5 mol/l, 37° C., 1 hour; read-out: Inhibitory effect (IC50 values, μM) Human plasma SSAO
T1 construct: The enzyme suspension prepared from blood plasma was pre-incubated with a control compound; from tissue; host or cells: human blood plasma
T1 sequence (Q16853 27-763 limits assumed): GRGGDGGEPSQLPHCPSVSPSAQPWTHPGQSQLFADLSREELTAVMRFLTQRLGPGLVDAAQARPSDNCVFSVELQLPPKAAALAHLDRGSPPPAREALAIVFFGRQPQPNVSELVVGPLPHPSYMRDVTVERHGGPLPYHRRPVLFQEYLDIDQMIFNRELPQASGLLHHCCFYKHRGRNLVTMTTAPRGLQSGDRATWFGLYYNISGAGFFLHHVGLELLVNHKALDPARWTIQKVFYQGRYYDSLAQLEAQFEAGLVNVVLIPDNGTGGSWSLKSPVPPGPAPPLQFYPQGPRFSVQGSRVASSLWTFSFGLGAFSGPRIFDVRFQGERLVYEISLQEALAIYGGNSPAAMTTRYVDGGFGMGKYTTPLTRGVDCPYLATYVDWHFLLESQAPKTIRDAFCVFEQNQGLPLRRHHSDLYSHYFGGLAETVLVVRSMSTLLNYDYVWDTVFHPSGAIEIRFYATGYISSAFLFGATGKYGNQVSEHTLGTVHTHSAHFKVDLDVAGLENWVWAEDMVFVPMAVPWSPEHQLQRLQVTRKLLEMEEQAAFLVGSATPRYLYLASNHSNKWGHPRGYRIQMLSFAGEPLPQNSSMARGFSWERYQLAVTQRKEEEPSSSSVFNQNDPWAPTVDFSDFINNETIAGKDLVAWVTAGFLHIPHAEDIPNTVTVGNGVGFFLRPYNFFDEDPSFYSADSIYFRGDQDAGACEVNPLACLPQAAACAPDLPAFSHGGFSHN
Protocol: VAP-1 enzyme (SSAO) activity in human plasma was determined by a radiochemical-enzyme assay using ^14C-benzylamine as an artificial substrate. The enzyme suspension prepared from blood plasma was pre-incubated with a control compound (Reference Example 1) in 96-well microplate at room temperature for 30 min. The enzyme suspension was then incubated with ^14C-benzylamine (2×10^−5 mol/l final concentration) in a final volume of 50 μl at 37° C. for 1 hour. The enzyme reaction was terminated by adding 2 mol/l (50 μl) citric acid. The oxidized products were directly extracted into a 200 μl toluene scintillator, and its radioactivity was measured by a scintillation spectrometer. Inhibition activity was expressed as IC50 (μmol/l) value.
Test compounds (i.e., the present compounds) inhibited the enzyme activity of human plasma SSAO in comparison with the control compound as shown in Table 1.

Compound | melting point [°C] | IC50 (Human plasma SSAO) [µM]
CC(=O)Nc1nc(-c2ccc(CCNC(=N)N)cc2)c(Cc2ccc(S(C)(=O)=O)cc2)s1.Cl | 217 to 218.5 | 
CC(=O)Nc1nc(CCc2ccc(NC(=N)N)cc2)c(Cc2cccc(S(C)(=O)=O)c2)s1 [Production Example 1, N-{4-[2-(4-{[amino(imino)methyl]amino}phenyl)ethyl]-5-[3-(methylsulfonyl)benzyl]-1,3-thiazol-2-yl}acetamide] | 212 to 213.5 | 0.016
CC(=O)Nc1nc(CCc2ccc(NC(=N)N)cc2)c(Cc2ccc(S(N)(=O)=O)cc2)s1 [Production Example 3, N-{4-[2-(4-{[amino(imino)methyl]amino}phenyl)ethyl]-5-[4-(aminosulfonyl)benzyl]-1,3-thiazol-2-yl}acetamide hydrochloride] |  | 0.0045
CC(=O)Nc1nc(-c2ccc(CCCCNC(=N)N)cc2)cs1 [Production Example 7, N-{4-[4-(4-{[amino(imino)methyl]amino}butyl)phenyl]-1,3-thiazol-2-yl}acetamide hydrochloride] |  | 0.015
CC(=O)Nc1nc(CCc2ccc(CC(=O)NC(=N)N)cc2)cs1 [Production Example 9, 2-(4-{2-[2-(acetylamino)-1,3-thiazol-4-yl]ethyl}phenyl)-N-[amino(imino)methyl]acetamide] |  | 0.0026
CC(=O)Nc1nc(CCc2ccc(NC(=N)N)cc2)c(CN2CC[C@@H](C(=O)N(C)C)C2)s1 [Production Example 12, (3R)-1-({2-(acetylamino)-4-[2-(4-{[amino(imino)methyl]amino}phenyl)ethyl]-1,3-thiazol-5-yl}methyl)-N,N-dimethyl-3-pyrrolidinecarboxamide dihydrochloride] |  | 0.019
CC(=O)Nc1nc(CCc2ccc(NC(=N)N)cc2)c(CN2CC[C@H](C(=O)N(C)C)C2)s1 [Production Example 14, (3S)-1-({2-(acetylamino)-4-[2-(4-{[amino(imino)methyl]amino}phenyl)ethyl]-1,3-thiazol-5-yl}methyl)-N,N-dimethyl-3-pyrrolidinecarboxamide dihydrochloride] |  | 0.014
CC(=O)Nc1nc(CCc2ccc(NC(=N)N)cc2)c(CN(C)C(=O)c2ccc(S(C)(=O)=O)cc2)s1 [Production Example 16, N-({2-(acetylamino)-4-[2-(4-{[amino(imino)methyl]amino}phenyl)ethyl]-1,3-thiazol-5-yl}methyl)-N-methyl-4-(methylsulfonyl)benzamide hydrochloride] |  | 0.012
CC(=O)Nc1nc(CCc2ccc(NC(=N)N)cc2)c(CN(C)C(=O)c2ccc([N+](=O)[O-])cc2)s1 [Production Example 19, N-({2-(acetylamino)-4-[2-(4-{[amino(imino)methyl]amino}phenyl)ethyl]-1,3-thiazol-5-yl}methyl)-N-methyl-4-nitrobenzamide hydrochloride] |  | 0.032
CC(=O)Nc1nc(CCc2ccc(CCNC(=N)N)cc2)cs1 [Production Example 25, N-(4-{2-[4-(2-{[amino(imino)methyl]amino}ethyl)phenyl]ethyl}-1,3-thiazol-2-yl)acetamide] |  | 0.0057
CC(=O)Nc1nc(CCc2ccc(NC(=N)N)cc2)cs1 [Reference Example 1, N-{4-[2-(4-{[amino(imino)methyl]amino}phenyl)ethyl]-1,3-thiazol-2-yl}acetamide, reference compound] |  | 0.033
